From ChEMBL document CHEMBL1201862, “PubChem BioAssay data set” (2004)
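Where inhibition never reached the appropriate level, the endpoint shown equals the highest concentration tested. Otherwise, values were interpolated linearly from a five-concentration, 48-hour dose response in 96-well plates. GI50 is the concentration that inhibits growth by half.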 Activity calls are given as the source filed them. Cut-off read from the data, not from the text of the source: active = GI50 up to about 1.1 µM and inactive = higher.

What was measured:
Test in all cases: NCI anticancer screen, dose series, 48 h
ACHN = tested on: ACHN
HCC 2998 = tested on: HCC 2998
HOP-62 = tested on: HOP-62
IGROV-1 = tested on: IGROV-1
LOX IMVI = tested on: LOX IMVI
M14 = tested on: M14
MCF7 = tested on: MCF7
MDA-MB-435 = tested on: MDA-MB-435
MDA-N = tested on: MDA-N
Malme-3M = tested on: Malme-3M
NCI-H226 = tested on: NCI-H226
NCI-H460 = tested on: NCI-H460
PC-3 = tested on: PC-3
SK-MEL-28 = tested on: SK-MEL-28
SN12C = tested on: SN12C
SNB-19 = tested on: SNB-19
SW-620 = tested on: SW-620
T47D = tested on: T47D
U-251 = tested on: U-251
A498 = tested on: A498

Compound	GI50 (ACHN)	GI50 (HCC 2998)	GI50 (HOP-62)	GI50 (IGROV-1)	GI50 (LOX IMVI)	GI50 (M14)	GI50 (MCF7)	GI50 (MDA-MB-435)	GI50 (MDA-N)	GI50 (Malme-3M)	GI50 (NCI-H226)	GI50 (NCI-H460)	GI50 (PC-3)	GI50 (SK-MEL-28)	GI50 (SN12C)	GI50 (SNB-19)	GI50 (SW-620)	GI50 (T47D)	GI50 (U-251)	GI50 (A498)
O=[N+]([O-])c1ccc(-n2nc3ccc4c(no[n+]4[O-])c3n2)cc1	7.11 µM (inactive)	> 100 µM (inactive)	35.2 µM (inactive)	> 100 µM (inactive)	> 100 µM (inactive)	> 100 µM (inactive)	82 µM (inactive)	> 100 µM (inactive)	> 100 µM (inactive)	> 100 µM (inactive)	> 100 µM (inactive)	33.2 µM (inactive)	5.55 µM (inactive)	> 100 µM (inactive)	> 100 µM (inactive)	> 100 µM (inactive)	> 100 µM (inactive)	> 100 µM (inactive)	> 100 µM (inactive)	–
O=C(O)/C=C\C(=O)Nc1ccc2c(c1)C(=O)c1cc(F)ccc1-2	> 100 µM (inactive)	–	> 100 µM (inactive)	> 100 µM (inactive)	> 100 µM (inactive)	> 100 µM (inactive)	> 100 µM (inactive)	> 100 µM (inactive)	> 100 µM (inactive)	> 100 µM (inactive)	> 100 µM (inactive)	> 100 µM (inactive)	> 100 µM (inactive)	> 100 µM (inactive)	> 100 µM (inactive)	> 100 µM (inactive)	> 100 µM (inactive)	> 100 µM (inactive)	99.8 µM (inactive)	> 100 µM (inactive)
CCOC(=O)c1c(C)[n+]([O-])c2cc(Cl)c(Cl)cc2[n+]1[O-]	29.3 µM (inactive)	13.7 µM (inactive)	21 µM (inactive)	7.6 µM (inactive)	15.3 µM (inactive)	23.1 µM (inactive)	32.5 µM (inactive)	18.6 µM (inactive)	31 µM (inactive)	–	12 µM (inactive)	16.3 µM (inactive)	26.9 µM (inactive)	29.4 µM (inactive)	20.4 µM (inactive)	36.8 µM (inactive)	–	16 µM (inactive)	32.1 µM (inactive)	20.3 µM (inactive)
c1ccc2c(c1)-c1nc3ccccc3cc1C2N1CCOCC1 (configuration not stated)	> 100 µM (inactive)	–	> 100 µM (inactive)	79.4 µM (inactive)	> 100 µM (inactive)	> 100 µM (inactive)	> 100 µM (inactive)	> 100 µM (inactive)	> 100 µM (inactive)	> 100 µM (inactive)	> 100 µM (inactive)	–	> 100 µM (inactive)	> 100 µM (inactive)	> 100 µM (inactive)	> 100 µM (inactive)	> 100 µM (inactive)	45.8 µM (inactive)	> 100 µM (inactive)	> 100 µM (inactive)
CCOC1=NC(O)c2cccn2-c2sccc21 (configuration not stated)	> 100 µM (inactive)	> 100 µM (inactive)	> 100 µM (inactive)	–	–	> 100 µM (inactive)	> 100 µM (inactive)	> 100 µM (inactive)	> 100 µM (inactive)	> 100 µM (inactive)	–	> 100 µM (inactive)	> 100 µM (inactive)	> 100 µM (inactive)	> 100 µM (inactive)	> 100 µM (inactive)	> 100 µM (inactive)	> 100 µM (inactive)	> 100 µM (inactive)	56.8 µM (inactive)
CCOC(=O)C1=c2[nH]c3cccc4cccc(c43)n2C=C(C(C)=O)C1CC(C)=O (configuration not stated)	80 µM (inactive)	62.7 µM (inactive)	68.7 µM (inactive)	> 100 µM (inactive)	43.2 µM (inactive)	> 100 µM (inactive)	94.2 µM (inactive)	52.6 µM (inactive)	> 100 µM (inactive)	–	–	> 100 µM (inactive)	> 100 µM (inactive)	> 100 µM (inactive)	> 100 µM (inactive)	55.2 µM (inactive)	40.6 µM (inactive)	34 µM (inactive)	> 100 µM (inactive)	86.1 µM (inactive)
C=C(CCC(C(=O)O)C1CCC2(C)C3=C(CCC12C)C1(C)CCC(O)C(C)(C)C1CC3)C(C)C (configuration not stated)	44.7 µM (inactive)	81.7 µM (inactive)	8.91 µM (inactive)	22.3 µM (inactive)	22 µM (inactive)	40.8 µM (inactive)	60.7 µM (inactive)	> 100 µM (inactive)	86.7 µM (inactive)	–	30.2 µM (inactive)	21.1 µM (inactive)	77.8 µM (inactive)	33.3 µM (inactive)	44.6 µM (inactive)	> 100 µM (inactive)	50.9 µM (inactive)	58.1 µM (inactive)	22 µM (inactive)	29.9 µM (inactive)
Cc1cnc(-c2c[nH]c3ccccc23)nc1-c1c[nH]c2ccccc12	2.94 µM (inactive)	4.67 µM (inactive)	11.7 µM (inactive)	1.14 µM (inactive)	3.62 µM (inactive)	4.32 µM (inactive)	3.05 µM (inactive)	5.87 µM (inactive)	4.2 µM (inactive)	–	–	2.65 µM (inactive)	3.49 µM (inactive)	–	1.68 µM (inactive)	7.89 µM (inactive)	11.5 µM (inactive)	1.75 µM (inactive)	6.46 µM (inactive)	2.6 µM (inactive)
CN1CCc2cc3c(c4c2C1C(O)c1ccccc1-4)OCO3 (configuration not stated)	6.05 µM (inactive)	8.91 µM (inactive)	4.67 µM (inactive)	6.61 µM (inactive)	4.25 µM (inactive)	5.12 µM (inactive)	4.31 µM (inactive)	6.12 µM (inactive)	5.08 µM (inactive)	8 µM (inactive)	–	3.33 µM (inactive)	5.37 µM (inactive)	20.2 µM (inactive)	3.03 µM (inactive)	10.6 µM (inactive)	7.53 µM (inactive)	13 µM (inactive)	6.07 µM (inactive)	3.27 µM (inactive)
CSC(SC)=C(C#N)C(=O)Nc1ccc(Cl)cc1	–	> 100 µM (inactive)	–	–	23.1 µM (inactive)	48.4 µM (inactive)	41.8 µM (inactive)	69.2 µM (inactive)	74.6 µM (inactive)	27.1 µM (inactive)	23.6 µM (inactive)	> 100 µM (inactive)	54.2 µM (inactive)	> 100 µM (inactive)	> 100 µM (inactive)	68.1 µM (inactive)	44.1 µM (inactive)	25.4 µM (inactive)	91 µM (inactive)	10.6 µM (inactive)
CCOC(=O)c1sc(N)nc1N1CCCC1	> 100 µM (inactive)	–	> 100 µM (inactive)	> 100 µM (inactive)	> 100 µM (inactive)	> 100 µM (inactive)	> 100 µM (inactive)	> 100 µM (inactive)	> 100 µM (inactive)	> 100 µM (inactive)	> 100 µM (inactive)	> 100 µM (inactive)	> 100 µM (inactive)	> 100 µM (inactive)	> 100 µM (inactive)	> 100 µM (inactive)	> 100 µM (inactive)	> 100 µM (inactive)	> 100 µM (inactive)	> 100 µM (inactive)
CCOC1NC(=O)Oc2cc3ccccc3cc21 (configuration not stated)	> 100 µM (inactive)	> 100 µM (inactive)	> 100 µM (inactive)	> 100 µM (inactive)	67.1 µM (inactive)	39 µM (inactive)	35.6 µM (inactive)	> 100 µM (inactive)	> 100 µM (inactive)	> 100 µM (inactive)	> 100 µM (inactive)	> 100 µM (inactive)	29 µM (inactive)	> 100 µM (inactive)	> 100 µM (inactive)	64.3 µM (inactive)	> 100 µM (inactive)	39.6 µM (inactive)	36.1 µM (inactive)	–
O=C1CCCCC/C1=C\c1cccc(F)c1	35.6 µM (inactive)	59.8 µM (inactive)	> 100 µM (inactive)	58.9 µM (inactive)	–	43.4 µM (inactive)	64.9 µM (inactive)	55.2 µM (inactive)	62.5 µM (inactive)	> 100 µM (inactive)	–	54.5 µM (inactive)	> 100 µM (inactive)	> 100 µM (inactive)	> 100 µM (inactive)	> 100 µM (inactive)	83.8 µM (inactive)	> 100 µM (inactive)	48.1 µM (inactive)	> 100 µM (inactive)
Cc1occc1/C(S)=N\c1ccc(Cl)c(C(=O)OCC2CC2)c1	34.5 µM (inactive)	26.7 µM (inactive)	–	37.3 µM (inactive)	29.2 µM (inactive)	85.5 µM (inactive)	38.5 µM (inactive)	75.3 µM (inactive)	41.6 µM (inactive)	88.5 µM (inactive)	53.2 µM (inactive)	57.9 µM (inactive)	30.4 µM (inactive)	72.6 µM (inactive)	34.9 µM (inactive)	54.2 µM (inactive)	54.7 µM (inactive)	35 µM (inactive)	95.3 µM (inactive)	35.8 µM (inactive)
CC[C@](O)(C(=O)O)c1cc2n(c(=O)c1CO)Cc1cc3ccccc3nc1-2	0.0025 µM (active)	0.324 µM (active)	0.0025 µM (active)	0.0652 µM (active)	–	0.00292 µM (active)	0.061 µM (active)	0.0532 µM (active)	0.0373 µM (active)	0.0975 µM (active)	–	0.025 µM (active)	0.131 µM (active)	–	0.025 µM (active)	0.025 µM (active)	–	0.0324 µM (active)	0.025 µM (active)	0.0398 µM (active)
